Assay results as given in patent publication US10799461B2 (priority 2004, dated 2020).

Experiments:
[1] = cited from earlier work
[2] = test system: MDA-MB-468 human breast adenocarcinoma cells; assay: Colorimetric cytotoxicity (MTS) assay, minicell-mediated drug delivery; type: cell-based; details: MDA-MB-468 cells, within 6 days after treatment
Procedure: A colorimetric cytotoxicity assay (Promega; CellTiter 96 Aqueous One™) was used. […] MDA-MB 468 cells were seeded at 5×10^6 cells in T75 flasks and incubated for 48 hrs to obtain ˜1×10^7 cells/flask. The media was changed and cells were treated with 10^9 non-targetedminicellsDOX or ^EGFRMinicellsDOX. Free Doxorubicin (50 ng/ml) was also included as a positive control. The cells were incubated for 24 hrs, washed thoroughly with 3 changes of PBS and trypsinized. Viable cells were counted in a haemocytometer using the trypan blue exclusion method. 1×10^4 cells/ml per well were aliqouted into 24-well plates (6 wells per treatment) and incubated for 3, 4, 5, and 6 days with media changes everyday. MTS assay was performed at each time point according to the manufacturers instructions. Briefly, 100 μL of MTS reagent was added to each well and color development was monitored over 2.5 hrs to 4 hrs. 100 μL from each well was transferred to a 96-well plate and the absorbance was read at 490 nm.

[3] = Reaction at the tail vein injection site in xenograft mice (Example 7); type: in vivo, athymic nude mice
Procedure: The experiment was designed as follows. Group 1 (control) received no treatment. Group 2 (control) received free Doxorubicin (5 μg/gm of mouse body weight) intratumorally. This control was included to determine the effect of free Doxorubicin on tumor cells and to assess toxic side-effects. Group 3 (control) was the same as group 2, except that the Doxorubicin was administered intravenously. Group 4 (control) received the anti-O antigen/anti-EGFR BsAb and free Doxorubicin intravenously to show the effect of BsAb in the absence of minicells. […] Groups 7 and 8 received EGFR-targeted ^EGFRMinicellsDOX intravenously and intratumorally, respectively, to determine if receptor-targeted, drug-packaged minicells could effect tumor stabilization. […] Minicells were administered at a dose of 10^8 and all treatments were given on days 17, 24, 27 and 56 post-xenograft establishment. All measurements were performed by an investigator who was blinded to the treatments administered. Statistical analysis was performed by analysis of variance (ANOVA) and P<0.05 was considered to be statistically significant.

[4] = test system: human breast cancer xenografts; assay: Human breast cancer xenograft in nude mice, Paclitaxel minicells (Example 8); type: in vivo; details: 1×10^8 minicells or 400 μg free Paclitaxel, intravenously or intratumorally, days 15, 21, 26, 29 and 33
Procedure: Human breast adenocarcinoma cells (MDA-MB-468, ATCC; human mammary epithelial cells; non-phagocytic) were grown in tissue culture to full confluency in T-75 flasks in RPMI 1640 medium supplemented with 5% Bovine Calf Serum (GIBCO-BRL Life Technologies, Invitrogen Corporation, Carlsbad, Calif., USA) and glutamine (Invitrogen) in a humidified atmosphere of 95% air and 5% CO2 at 37° C. 1×10^6 cells in 50 uL serum-free media together with 50 uL growth factor reduced matrigel (BD Biosciences, Franklin Lakes, N.J., USA) were injected subcutaneously between the shoulder blades of each mouse using a 23-gauge needle. The tumors were measured twice a week using an electronic digital caliper (Mitutoyo, Japan, precision to 0.001) and mean tumor volume was calculated using the formula, length (mm)×width^2 (mm)×0.5=volume (mm^3). 16 days post-implantation, the tumors reached volumes between 50 mm^3 and 80 mm^3, and mice were randomized to seven different groups of 11 per group.
The experiment shown in example 7 was repeated using ^EGFRminicellsPaclitaxel as the experimental treatment. […]

CC[C@]1(O)C[C@@H]2CN(CCc3c([nH]c4ccccc34)[C@@](C(=O)OC)(c3cc4c(cc3OC)N(C)[C@H]3[C@@](O)(C(=O)OC)[C@H](OC(C)=O)[C@]5(CC)C=CCN6CC[C@]43[C@@H]65)C2)C1 [Vinblastine]
solubility in water [1]: low solubility in water

COc1cccc2c1C(=O)c1c(O)c3c(c(O)c1C2=O)C[C@@](O)(C(=O)CO)C[C@@H]3O[C@H]1C[C@H](N)[C@H](O)[C@H](C)O1 [free Doxorubicin, Doxorubicin]
cell viability [2]: about 30%
reaction at the site of injection [3]: severe reaction at the site of the injection

CC(=O)O[C@H]1C(=O)[C@@]2(C)[C@H]([C@H](OC(=O)c3ccccc3)[C@]3(O)C[C@H](OC(=O)[C@H](O)[C@@H](NC(=O)c4ccccc4)c4ccccc4)C(C)=C1C3(C)C)[C@]1(OC(C)=O)CO[C@@H]1C[C@@H]2O [free paclitaxel, Paclitaxel]
tumor stabilization/regression [4]: negligible effect on tumor growth
